Assay results published in patent US20170016062A1, “SEQUENCING METHODS AND KITS” (NEW YORK UNIVERSITY, priority 2015, published 2017).

What was measured:
[1] = tested on: MG1655 E. coli (rpoB and mrcA regions of interest); assay: Maximum-Depth Sequencing (MDS) of mutation rates in E. coli grown with sub-inhibitory antibiotic doses; format: cell-based, Escherichia coli; conditions: for rate of transition mutations in rpoB: wild-type MG1655, aerobic, 1 μL/mL ampicillin or 15 ng/mL norfloxacin
Experimental: E. coli were streaked onto Luria-Bertani (LB) Agar from freezer stocks and grown at 30° C. for 24 hours. According to plating and colony-forming unit (CFU) counting, the average number of cells in such colonies is 3×10^8 (thus the number of generations is […]. Bacteria from a single colony were used to inoculate a small liquid culture (1 ml LB broth in a round-bottom tube). For the purposes of generation counting, it is assumed that after the transition to growing in liquid, growth occurs for only ˜3 generations, since the number of bacteria in the colony is roughly equal to the carrying capacity of the broth. The culture was grown for 12 hours on a 37° C. shaker.
4 μL (˜10^7 bacteria) were transferred to a fresh 100 mL LB liquid culture (in a 250 mL Erlenmeyer flask). Liquid cultures were grown for 24 hours on a 37° C. shaker, to a density of 2.5×10^9 bacteria according to cell counts (for a total of 2.5×10^11 bacteria). This process was performed 9 times. The average number of generations a bacterium would have grown in each liquid culture is
Four biological replicates of each condition were grown. All liquid cultures, including the small founding culture, had the possible addition of 1 μL/mL ampicillin or 15 ng/mL norfloxacin. […] The fact that most of the “interrelatedness” between bacteria sampled at the end of the culture is important for the way mutation rate is calculated.
MG1655 E. coli were used as wild-type cells for all experiments. The tet-regulated mrcA strain MG1655(CmR::Ptet-mrcA SpR::tetR) was prepared according to Lutz, R.; Bujard, H. (1997) Independent and tight regulation of transcriptional units in Escherichia coli via the LacR/O and the TetR/O and AraC/I1-I2 regulatory elements. Nucleic Acids Research. 25(6):1203-10. […] PNAS 111(20):E2100-E2109, doi: 10.1073/pnas.1201876111. Mutant strains were induced with anhydrous tetracycline at 50 ng/ml. In the mutS knockout strain, MG1655 mutS was replaced with a kanamycin resistance cassette.
0. Restriction digest. a. Incubate 1 μg DNA in 50 μL 1× restriction enzyme buffer with the appropriate amount of restriction enzyme. For this study, 1 unit XmnI was used. Samples were incubated at 37° C. overnight. b. Deactivate restriction enzyme. For XmnI, samples were heated at 65° C. for 20 minutes. 1. 1 cycle PCR with adapter-barcode-primer a. Prepare 50 μL PCR reaction mix using adapter-barcode-primer and 12.5 μL of the sample above (250 ng DNA) b. PCR, 1 cycle: 98° C. 1 min, 60° C. 15 sec, 72° C. 1 min 2. Remove unused barcodes a. Immediately add 1 μL exonuclease I+5 μL buffer. b. Incubate at 37° C. for 1 hr, then 80° C. for 20 min c. Clean sample using PCR purification kit 3. Linear amplification using forward adapter amplifier primers a. Add cleaned DNA to fresh 50 μL reaction mix with forward adapter amplifier primer. b. PCR, 12 cycles: 98° C. 15 sec, 61° C. 15 sec, 72° C. 5 sec Note: The number of linear amplification cycles is limited by off-target amplification.
a. Add adapter-reverse-primer and reverse adapter amplifier primers. b. PCR, 15 cycles: 98° C. 15 sec, 61° C. 15 sec, 72° C. 5 sec 5. Purify with Ampure XP beads Optional: If using multiple samples with phased barcodes, combine DNA first in equimolar concentrations. For this study, quantification at this step was done using TapeStation. 6. Sequence. HiSeq Rapid Run, 150 bp, Paired-End.
After grouping by barcode, sequences were aligned using the forward and reverse [primer] sequences for mrcA and rpoB above. Samples were indexed according to phase. Consensus bases, including indels, are called only when all bases at a given position and barcode have 100% agreement.
Mutation rates in the assay are chosen to maximize the likelihood of recovering the mean mutant frequency for substitutions of a given type X->Y, which occur a Poisson process over a certain number of generations (in this case 113). […]

E. coli = assay: Fluctuation assay of mutation rate with sub-inhibitory antibiotic doses; format: cell-based, Escherichia coli
Text: The effect of sub-inhibitory doses of antibiotics of different classes on mutation rate was investigated using both MDS and detailed fluctuation assays as performed in Garibyan, L. et al. (2003). DNA Repair. 2(5):593-608; and Lang, G. I.; et al. (2008). Genetics 178(1):67-82.

Question: Which results are given for `CCn1cc(C(=O)O)c(=O)c2cc(F)c(N3CCNCC3)cc21` [norfloxacin]?
Answer: rate of >1 bp indel formation in both mrcA and rpoB ([1]; MDS, 15 ng/mL norfloxacin): increased the rate of >1 bp indel formation in both mrcA and rpoB; rate of transition mutations in rpoB ([1]; MDS): increased the transition substitution rate in rpoB; transition substitution rate in rpoB, fluctuation assays (E. coli): this increase was only seen in cells that were grown to stationary phase

Question: Which results are given for `CC1(C)S[C@@H]2[C@H](NC(=O)[C@H](N)c3ccccc3)C(=O)N2[C@H]1C(=O)O` [ampicillin]?
Answer: mutation rate in cells overexpressing catalase ([1]; MDS, catalase overexpression mutant, lower basal rate): did not increase this lower rate; transversions and indel formation in mrcA ([1]; MDS, mrcA): increased transversions and indel formation in mrcA; rate of transition mutations in rpoB ([1]; MDS): increase in the rate of transition mutations in rpoB; transition rate, anaerobic conditions ([1]; cells grown in anaerobic conditions): did not display an increase in transition rate
